This is an account of results in article PMC5818060 (Journal of Cell Science, 2018).

For data set [1], the system named is endogenous CK1 / CK1 sensor in HEK293T cells. The experiment in a line: CK1 FRET biosensor, microplate reader FRET/CFP ratio. The conditions noted are these: HEK293T, CK1 sensor; D4476 0.4 or 2 µM in Fig. 1F-H, added 2-4 h prior to analysis; n=3. Type of data set: cell-based, human. On the procedure:
HEK293T cells were seeded at a density of 20,000 cells/well on 96-well black microplates (PS, μClear, clear bottom, chimney well, Greiner No. 655090). Transfection was performed as described above. Unless indicated otherwise, the respective cell populations were transfected with 50-100 ng CK1 FRET biosensor, 100 ng regulator (i.e. N-Flag DDX3X) and 1-10 ng kinase (i.e. N-Flag CK1ε). Either empty pCS2 N-Flag vector or luciferase were used to transfect the same amount of DNA in every well. Generally, the different samples were run in triplicate for each individual experiment. Owing to the varying values for the FRET/CFP ratios based on transfection efficiency, cell density and the time point of analysis, we always set the FRET/CFP ratio of cells only transfected with the CK1 sensor to 1 in order to compare individual experiments. Importantly, the individual figures with the CK1 sensor represent only experiments performed on the same 96-well plate with the same cell density, transfection efficiency and time point.
Where applicable, the small-molecule CK1 inhibitor D4476 (BioVision) was added to the cells 2-4 h prior to the analysis. For each triplicate the respective volume of D4476 (in DMSO) was added together with 1 μl Fugene HD (Promega) to 60 μl serum-free medium. The solution was mixed, incubated for 15 min and added to the cells. […] In the corresponding controls an equal amount of DMSO instead of the inhibitor was added to the medium. Analysis was performed 48-60 h after transfection on an Infinite M1000 PRO microplate reader (Tecan) by exciting CFP with a wavelength of 433 nm and measuring the resulting emission at 460-600 nm in 2 nm increments. Fluorometric spectra were background subtracted with spectra recorded from wells with non-transfected cells. Resulting FRET/CFP ratios were calculated by dividing the intensity values at the respective peaks (478 nm for CFP, 528 nm for YFP) and analyzed essentially as described ([Fritz et al., 2013]). Where indicated, CK1δ/ε-derived peptides were transfected into cells using Metafectene (Biontex) 1 hour before measurements.

Another data set has as its system DDX3X. The experiment in a line: ATPase assay of DDX3X. The class given is biochemical, human. The conditions noted are these: CK1ε pre-incubated with D4476; dsRNA-stimulated. On the procedure:
For the ATPase assay, Flag-tagged DDX3X full-length constructs were expressed in HEK293T cells. After purifying and eluting DDX3X from the beads, an aliquot of the eluates was resolved by SDS-PAGE in order to monitor the different DDX3X levels via western blotting and ImageJ. Based on this comparison, similar amounts of full-length DDX3X protein were used. Approximately 100 ng Flag-DDX3X protein and 10 ng His-CK1ε were used in a 60 μl reaction mix (reaction buffer: 20 mM Tris-HCl, pH 7.4, 200 mM NaCl, 0.5 mM DTT, 1 mM MgCl2, 1 mM ATP) with dsRNA (17 nM, 34 nM, 68 nM); the reaction was carried out at 37°C for 40 min. To phosphorylate DDX3X, 500 ng His-CK1εΔC or His-CK1εΔC^K38R were added in kinase buffer before eluting the DDX3X protein from the Sepharose magnetic Flag beads (Sigma). Incubation was performed at 37°C for 30 min. Then, beads were washed with 50 mM Tris-HCl, pH 7.5 and 500 mM NaCl before elution with Flag peptide. Termination of the helicase reaction was done with 10 μl of 50% TCA solution added to each reaction followed by centrifugation at 3000 g for 5 min at 4°C. Reaction mix was mixed with coloring solution (35 mM ammonium molybdate, 10 mM zinc acetate, 10% ascorbic acid, pH 5) in a 96-well plate before analysis using a spectrometer (wavelength 700 nm).

For data set [2] the following is noted: reason given for adding Fugene HD; ref Rena et al., 2004; cited from earlier work. On the procedure:
Where applicable, the small-molecule CK1 inhibitor D4476 (BioVision) was added to the cells 2-4 h prior to the analysis. For each triplicate the respective volume of D4476 (in DMSO) was added together with 1 μl Fugene HD (Promega) to 60 μl serum-free medium. The solution was mixed, incubated for 15 min and added to the cells. […] In the corresponding control ...

Turning to `NC(=O)c1ccc(-c2nc(-c3ccc4c(c3)OCCO4)c(-c3ccccn3)[nH]2)cc1` [D4476, reference compound], the “effect of CK1 inhibitor on FRET/CFP ratio of CK1 sensor” value in data set [1] is on record as “reduced as a result of the inhibitor treatment”. Besides, the “effect of CK1 inhibitor on CK1ε-mediated inhibition of DDX3X ATPase activity” value in the data set with DDX3X is listed as “prevented inhibition of the ATPase activity of DDX3X”. In data set [2], the cell permeability result was “poor cell permeability”.
